From patent US11564928B1, “Cannabinoid receptor type 2 (CB2) modulators and uses thereof” (Teon Therapeutics, Inc., priority 2020, dated 2023) come the findings set out here.

The structures appear in SMILES notation. Read-outs that look alike come from different tables or passages of the source.

For one test, the target named is human CB2 receptor (Homo sapiens (Human), UniProt P34972). In words: CB2 receptor binding assay ([3H]CP-55,940 displacement, HEK-293 membranes). How it is done:
The compounds were evaluated in CB1R and CB2R binding assays using membranes from HEK-293 cells transfected with cDNAs encoding the human recombinant CB1R (Bmax=[…] protein) and human recombinant CB2R (Bmax=[…] protein) (Perkin-Elmer). […] Compounds were tested following the procedure described by the cell membrane manufacturer. […] CB2R binding assays were carried out with two different buffers: incubation buffer (Tris-HCl, 50 mM; MgCl2, 5 mM; CaCl2 1 mM; BSA, 0.2% at pH 7.4) and washing buffer (Tris-HCl, 50 mM; NaCl 500 mM; BSA, 0.1% at pH 7.4). […] Assays were performed in duplicate and incubated for […] at 37° C. […] Data are analyzed and IC50 is calculated using GraphPad Prism 5 and the model “log(inhibitor) vs. response—Variable slope”. The binding affinity of the compounds is Determined by Using the Cheng and Prusoff Equation Ki=IC50/(1+[radioligand]/Kd).

A further test addresses human recombinant CB1R (Homo sapiens (Human), UniProt P21554). The test is described as follows: CB1 receptor binding assay ([3H]CP-55,940 displacement, HEK-293 membranes). The note with it: membranes of HEK-293 cells with human recombinant CB1R, [3H]CP-55,940, read-out: CB1 IC50. How it is done:
The compounds were evaluated in CB1R and CB2R binding assays using membranes from HEK-293 cells transfected with cDNAs encoding the human recombinant CB1R (Bmax=[…] protein) and human recombinant CB2R (Bmax=[…] protein) (Perkin-Elmer). […]. Compounds were tested following the procedure described by the cell membrane manufacturer. […] CB2R binding assays were carried out with two different buffers: incubation buffer (Tris-HCl, 50 mM; MgCl2, 5 mM; CaCl2 1 mM; BSA, 0.2% at pH 7.4) and washing buffer (Tris-HCl, 50 mM; NaCl 500 mM; BSA, 0.1% at pH 7.4). […] Assays were performed in duplicate and incubated for […] at 37° C. After the incubation, the assay mixture is filtered through 96 GF/C filter plates (Perkin Elmer #6005174) using Perkin Elmer Filtermate Harvester, and then washed four times with ice-cold washing buffer. The filters are dried for 1 hour at 50° C. and [^3H] trapped on filter counted for radioactivity in Perkin Elmer Microscint 20 cocktail (#6013329) using Perkin Elmer MicroBeta2 Reader. […] Data are analyzed and IC50 is calculated using GraphPad Prism 5 and the model “log(inhibitor) vs. response—Variable slope”. The binding affinity of the compounds is Determined by Using the Cheng and Prusoff Equation Ki=IC50/(1+[radioligand]/Kd).

Setting [1] is: membranes of HEK-293 cells with human recombinant CB2R, [3H]CP-55,940, read-out: CB2 IC50.
The mark [2] stands for this setting: membranes of HEK-293 cells with human recombinant CB2R, [3H]CP-55,940, class symbols, read-out: CB2 IC50.

Chain of human CB2 receptor (P34972 whole entry): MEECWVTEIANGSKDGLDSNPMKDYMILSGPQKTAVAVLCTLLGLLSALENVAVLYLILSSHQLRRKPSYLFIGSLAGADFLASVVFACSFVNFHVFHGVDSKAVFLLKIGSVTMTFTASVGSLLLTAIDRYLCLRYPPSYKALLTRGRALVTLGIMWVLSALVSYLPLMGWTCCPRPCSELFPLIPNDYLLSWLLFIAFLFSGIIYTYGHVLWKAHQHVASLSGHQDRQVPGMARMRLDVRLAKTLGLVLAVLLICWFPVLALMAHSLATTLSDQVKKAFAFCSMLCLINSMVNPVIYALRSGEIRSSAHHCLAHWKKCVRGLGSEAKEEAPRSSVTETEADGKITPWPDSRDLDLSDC
Chain of human recombinant CB1R (P21554 whole entry): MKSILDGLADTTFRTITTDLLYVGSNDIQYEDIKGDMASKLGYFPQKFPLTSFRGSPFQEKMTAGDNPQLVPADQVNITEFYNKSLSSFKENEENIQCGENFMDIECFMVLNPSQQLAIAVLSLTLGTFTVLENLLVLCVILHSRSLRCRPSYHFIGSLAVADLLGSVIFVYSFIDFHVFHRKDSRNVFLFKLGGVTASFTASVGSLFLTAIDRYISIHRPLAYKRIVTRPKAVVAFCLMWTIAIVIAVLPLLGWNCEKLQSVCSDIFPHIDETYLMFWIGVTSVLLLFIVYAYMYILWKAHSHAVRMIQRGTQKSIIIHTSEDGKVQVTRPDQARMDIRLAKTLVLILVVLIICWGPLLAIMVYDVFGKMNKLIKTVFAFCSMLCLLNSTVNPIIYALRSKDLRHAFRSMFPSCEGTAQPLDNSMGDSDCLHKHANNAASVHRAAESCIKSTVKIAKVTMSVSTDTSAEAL

A word on the IC50: it is the concentration at which inhibition is half-maximal. With `C[C@@H](NC(=O)c1cc2cc(Br)cnc2n(Cc2ccc(F)cc2)c1=O)c1ccc(F)cc1` [Compound 87, (R)-6-bromo-1-(4-fluorobenzyl)-N-(1-(4-fluorophenyl)ethyl)-2-oxo-1,2-dihydro-1,8-naphthyridine-3-carboxamide], the IC50 at human CB2 receptor (setting [1]) came out at 5 nM; on human recombinant CB1R it was 4580 nM.
`C[C@H]1CC[C@@H](NC(=O)c2c(O)c3cc(-c4ccc(OC(F)F)cc4)ccc3n(CCN3CCOCC3)c2=O)CC1` [Compound 158, 6-(4-(difluoromethoxy)phenyl)-4-hydroxy-N-((1s,4S)-4-methylcyclohexyl)-1-(2-morpholinoethyl)-2-oxo-1,2-dihydroquinoline-3-carboxamide]: the half-inhibitory concentration (IC50) was below 100 nM on human CB2 receptor (setting [2]) and above 1000 nM on human recombinant CB1R (class symbols).
In the case of `COc1ccc(-c2ccc3c(c2)cc(C(=O)NC2CCC(C)(C)CC2)c(=O)n3CCN2CCOCC2)cc1` [Compound 39, N-(4,4-dimethylcyclohexyl)-6-(4-methoxyphenyl)-1-(2-morpholinoethyl)-2-oxo-1,2-dihydroquinoline-3-carboxamide], the IC50 on human CB2 receptor (setting [1]) is 1.2 nM; at human recombinant CB1R, above 10000 nM.
`O=C(NC1CC2(CCC2)C1)c1c(O)c2cc(Br)cnc2n(Cc2ccc(F)cc2)c1=O` [Compound 2, 6-bromo-1-(4-fluorobenzyl)-4-hydroxy-2-oxo-N-(spiro[3.3]heptan-2-yl)-1,2-dihydro-1,8-naphthyridine-3-carboxamide]: the results for the IC50 at human CB2 receptor and at human recombinant CB1R (class symbols) were 100 to 999 nM and above 1000 nM, respectively.
For the compound `O=C(NC12CCC(CC1)CC2)c1c(O)c2cc(-c3ccc(F)cc3)cnc2n(CCN2CCOCC2)c1=O` [Compound 116, N-(bicyclo[2.2.2]octan-1-yl)-6-(4-fluorophenyl)-4-hydroxy-1-(2-morpholinoethyl)-2-oxo-1,2-dihydro-1,8-naphthyridine-3-carboxamide], the results for the IC50 on human CB2 receptor (setting [1]) and on human recombinant CB1R were 31 nM and 1480 nM, respectively.
Regarding `O=C(NC12CC(C1)C2)c1c(O)c2cccnc2n(CCN2CCOCC2)c1=O` [Compound 136, N-(bicyclo[1.1.1]pentan-1-yl)-4-hydroxy-1-(2-morpholinoethyl)-2-oxo-1,2-dihydro-1,8-naphthyridine-3-carboxamide], the IC50 on human CB2 receptor (setting [2]) and at human recombinant CB1R (class symbols) was above 1000 nM each time.
As for `O=C(NC12CC(C1)C2)c1c(O)c2cc(-c3ccc(F)cc3)cnc2n(Cc2ccncc2)c1=O` [Compound 129, N-(bicyclo[1.1.1]pentan-1-yl)-6-(4-fluorophenyl)-4-hydroxy-2-oxo-1-(pyridin-4-ylmethyl)-1,2-dihydro-1,8-naphthyridine-3-carboxamide], the IC50 on human CB2 receptor (setting [2]) and at human recombinant CB1R (class symbols) was above 1000 nM throughout.
Take `C[C@H]1CC[C@@H](NC(=O)c2c(O)c3cccnc3n(CCN3CCOCC3)c2=O)CC1` [Compound 137, 4-hydroxy-N-((1s, 4s)-4-methylcyclohexyl)-1-(2-morpholinoethyl)-2-oxo-1,2-dihydro-1,8-naphthyridine-3-carboxamide]: the IC50 was 15 nM at human CB2 receptor (setting [1]) and above 10000 nM at human recombinant CB1R.
As to `O=C(NC1CC2(CCC2)C1)c1c(O)c2cc(-c3ccc(OC(F)F)cn3)cnc2n(CCN2CCOCC2)c1=O` [Compound 25, 6-(5-(difluoromethoxy)pyridin-2-yl)-4-hydroxy-1-(2-morpholinoethyl)-2-oxo-N-(spiro[3.3]heptan-2-yl)-1,2-dihydro-1,8-naphthyridine-3-carboxamide], the IC50 on human CB2 receptor (setting [2]) and on human recombinant CB1R (class symbols) was above 1000 nM each time.
Regarding `CC(NC(=O)c1cc2cc(-c3ccc(C#N)cn3)cnc2n(CCN2CCOCC2)c1=O)c1ccc(C#N)cc1` (centres unmarked) [Compound 41, N-(1-(4-cyanophenyl)ethyl)-6-(5-cyanopyridin-2-yl)-1-(2-morpholinoethyl)-2-oxo-1,2-dihydro-1,8-naphthyridine-3-carboxamide], the figures for the IC50 at human CB2 receptor and at human recombinant CB1R (class symbols) were 100 to 999 nM and above 1000 nM, respectively.
With `C[C@H]1CC[C@H](NC(=O)c2c(O)c3cc(-c4ccc(OC(F)F)cc4)cnc3n(CCN3CCOCC3)c2=O)CC1` [Compound 155, 6-(4-(difluoromethoxy)phenyl)-4-hydroxy-N-((1R,4R)-4-methylcyclohexyl)-1-(2-morpholinoethyl)-2-oxo-1,2-dihydro-1,8-naphthyridine-3-carboxamide], the IC50 on human CB2 receptor (setting [2]) and at human recombinant CB1R (class symbols) was above 1000 nM each time.
With `O=C(NC1(CO)CCCCC1)c1c(O)c2cc(-c3ccc(F)cc3)cnc2n(CCN2CCOCC2)c1=O` [Compound 121, 6-(4-fluorophenyl)-4-hydroxy-N-(1-(hydroxymethyl)cyclohexyl)-1-(2-morpholinoethyl)-2-oxo-1,2-dihydro-1,8-naphthyridine-3-carboxamide], the IC50 at human CB2 receptor (setting [1]) worked out at 9 nM; on human recombinant CB1R it was 2320 nM.
Take `O=C(NC1CC2(CCC2)C1)c1cc2cc(-c3ccc(OC4CC4)cc3)cnc2n(Cc2ccc(F)cc2)c1=O` [Compound 67, 6-(4-cyclopropoxyphenyl)-1-(4-fluorobenzyl)-2-oxo-N-(spiro[3.3]heptan-2-yl)-1,2-dihydro-1,8-naphthyridine-3-carboxamide]: the IC50 on human CB2 receptor (setting [2]) and at human recombinant CB1R (class symbols) was above 1000 nM throughout.
Consider `C[C@H]1CC[C@H](NC(=O)c2c(O)c3cccnc3n(Cc3ccc(F)cc3)c2=O)CC1` [Compound 144, 1-(4-fluorobenzyl)-4-hydroxy-N-((1r, 4r)-4-methylcyclohexyl)-2-oxo-1,2-dihydro-1,8-naphthyridine-3-carboxamide], for which the IC50 at human CB2 receptor (setting [1]) is 1500 nM; on human recombinant CB1R, above 10000 nM.
With `CC(NC(=O)c1cc2cc(Br)cnc2n(Cc2ncccn2)c1=O)c1ccc(F)cc1` (centres unmarked) [Compound 64, 6-bromo-N-(1-(4-fluorophenyl)ethyl)-2-oxo-1-(pyrimidin-2-ylmethyl)-1,2-dihydro-1,8-naphthyridine-3-carboxamide], the IC50 on human CB2 receptor (setting [2]) and at human recombinant CB1R (class symbols) was above 1000 nM throughout.
With `O=C(NC1CC2(CC2)C1)c1c(O)c2cc(-c3ccc(F)cc3)cnc2n(CCN2CCOCC2)c1=O` [Compound 112, 6-(4-fluorophenyl)-4-hydroxy-1-(2-morpholinoethyl)-2-oxo-N-(spiro[2.3]hexan-5-yl)-1,2-dihydro-1,8-naphthyridine-3-carboxamide], the IC50 at human CB2 receptor (setting [2]) is below 100 nM; at human recombinant CB1R (class symbols), above 1000 nM.
On to `COc1ccc(-c2cnc3c(c2)cc(C(=O)NC2CCC4(CC2)CC4)c(=O)n3CCN2CCOCC2)cc1` [Compound 28, 6-(4-methoxyphenyl)-1-(2-morpholinoethyl)-2-oxo-N-(spiro[2.5]octan-6-yl)-1,2-dihydro-1,8-naphthyridine-3-carboxamide], for which the IC50 is 0.7 nM at human CB2 receptor (setting [1]) and above 10000 nM on human recombinant CB1R.
Take `COc1ccc(-c2cnc3c(c2)c(O)c(C(=O)NC2CCCCC2)c(=O)n3CCN2CCOCC2)cc1` [Compound 152, N-cyclohexyl-4-hydroxy-6-(4-methoxyphenyl)-1-(2-morpholinoethyl)-2-oxo-1,2-dihydro-1,8-naphthyridine-3-carboxamide]: the IC50 on human CB2 receptor is 100 to 999 nM; at human recombinant CB1R (class symbols) it was above 1000 nM.
For the compound `CN1CCN(CCn2c(=O)c(C(=O)NC34CC(C3)C4)c(O)c3cc(-c4ccc(F)cc4)cnc32)CC1` [Compound 132, N-(bicyclo[1.1.1]pentan-1-yl)-6-(4-fluorophenyl)-4-hydroxy-1-(2-(4-methylpiperazin-1-yl)ethyl)-2-oxo-1,2-dihydro-1,8-naphthyridine-3-carboxamide], the IC50 at human CB2 receptor was 100 to 999 nM; at human recombinant CB1R (class symbols), above 1000 nM.
